# Tested on: rhythmic bladder contractions in rats
# Assay: Inhibitory effect against rhythmic bladder contractions in rats
# Format: in vivo
# Settings: anesthetized female SD rats, intravenous
# Method: Inhibitory Effect Against Rhythmic Bladder Contractions in Rats
# Female SD rats were anesthetized with an intraperitoneal administration of urethane (1.0 g/kg). A polyethylene tube was inserted from the urethra to the bladder and the tube was fixed by ligation. Then physiological saline was appropriately infused (infusion rate: about 0.2 ml/min., maximum: about 1.5 ml/animal) through the tube to cause rhythmic bladder contractions. The rhythmic bladder contractions were monitored by measuring the intravesical pressure through a polyethylene tube inserted into the bladder. After confirming that stable rhythmic bladder contractions occurred at least 10 times, a vehicle containing a prescribed dose of a test compound was intravenously administration at a dose of 1 ml/kg. In cases where the intravesical pressure, within 10 minutes after the administration of the test compound, decreased to 50% or less of the intravesical pressure immediately […] the administration, the test compound was judged as having inhibitory effect against urinary bladder contractions, and the time period until the intravesical pressure returned to more than 50% was defined as inhibitory time of rhythmic bladder contractions. As the vehicle for administration, physiological saline was used for test compounds 4, 7, 8, 9, 10, 13, 29, 30, 31, 33, 34, 75, 76, 79, 80, 81, 82, 84, 89, 90, 91, 93, 94, 95, 110 and 111, aqueous 10% dimethylsulfoxide (DMSO) solution was used for test compounds 11, 12, 14, 15, 16, 17, 18, 20, 21, 23, 28, 46, 47, 50, 55, 56, 57, 58, 59, 60, 61, 62, 63, 64, 65, 66, 68, 69, 70, 71, 72, 73, 74, 77, 78, 83, 85, 86, 87, 88, 92, 96, 97, 98, 99, 100, […], 103, 104, 105, 106, 107, 108 and […], aqueous 20% dimethylsulfoxide (DMSO) solution was used for test compounds 1, 2, 67 and 101, and aqueous 5% xylitol solution was used for test compounds 5 and 35. The aqueous 10% DMSO solution, aqueous 20% DMSO solution and the aqueous 5% xylitol solution per se, which may influence on the inhibitory time of rhythmic bladder contractions, were also tested at a dose of 1 ml/kg. With any of the compounds, prolongation of the inhibitory time of rhythmic bladder contractions was observed when compared with that obtained in the group to which the vehicle alone was administered.
smiles,measurement,setting,value
"O=C1C2=C(CCCC2)C(=O)N1C1CC[C@@]2(O)[C@H]3Cc4ccc(O)c5c4[C@@]2(CCN3CC2CC2)[C@H]1O5 (stereo in doubt) [Compound 72, N-(17-cyclopropylmethyl-4,5α-epoxy-3,14-dihydroxymorphinan-6α-yl)-3,4,5,6-tetrahydrophthalimide]",Mean Inhibitory Time of Rhythmic Bladder Contractions,dose 0.003 mg/kg body weight,26.7 min
"CN1CC[C@]23c4c5ccc(O)c4O[C@H]2[C@H](N2CCCc4ccccc42)CC[C@H]3[C@H]1C5 [Compound 1, 4,5α-epoxy-6β-tetrahydroquinolino-17-methyl-morphinan-3-ol]",Mean Inhibitory Time of Rhythmic Bladder Contractions,dose 0.1 mg/kg body weight,11.7 min
"CN1CC[C@]23c4c5ccc(O)c4O[C@H]2[C@H](N2CCSc4ccccc42)CC[C@H]3[C@H]1C5 [Compound 2, 4,5α-epoxy-6β-(3,4-dihydro-2H-benzo[1,4]thiazino)-17-methyl-morphinan-3-ol]",Mean Inhibitory Time of Rhythmic Bladder Contractions,dose 0.1 mg/kg body weight,15.5 min
"CN1CC[C@]23c4c5ccc(O)c4O[C@H]2[C@H](N2CCOc4ccccc42)CC[C@H]3[C@H]1C5 [Compound 4, 4,5α-epoxy-6β-(3,4-dihydro-2H-benzo [1,4]oxazino)-17-methyl-morphinan-3-ol]",Mean Inhibitory Time of Rhythmic Bladder Contractions,dose 0.1 mg/kg body weight,15.6 min
"Oc1ccc2c3c1O[C@H]1[C@H](N4CCc5ccccc54)CC[C@@]4(O)[C@@H](C2)N(CCc2ccccc2)CC[C@]314 [Compound 5, 4,5α-epoxy-6β-indolino-17-phenethyl-morphinan-3,14-diol]",Mean Inhibitory Time of Rhythmic Bladder Contractions,dose 0.1 mg/kg body weight,9.9 min
"CN1CC[C@]23c4c5ccc(O)c4O[C@H]2[C@H](N2CC(=O)Nc4ccccc42)CC[C@@]3(O)[C@H]1C5 [Compound 7, 4-(4,5α-epoxy-3,14-dihydroxy-17-methyl-morphinan-6β-yl)-3,4-dihydro-1H-quinoxalino-2-one]",Mean Inhibitory Time of Rhythmic Bladder Contractions,dose 1.0 mg/kg body weight,3.8 min
"CN1C(=O)CN([C@@H]2CC[C@@]3(O)[C@H]4Cc5ccc(O)c6c5[C@@]3(CCN4C)[C@H]2O6)c2ccccc21 [Compound 8, 4-(4,5α-epoxy-3,14-dihydroxy-17-methyl-morphinan-6β-yl)-1-methyl-3,4-dihydro-1H-quinoxalino-2-one]",Mean Inhibitory Time of Rhythmic Bladder Contractions,dose 0.3 mg/kg body weight,6.8 min
"CN1CCN([C@@H]2CC[C@@]3(O)[C@H]4Cc5ccc(O)c6c5[C@@]3(CCN4C)[C@H]2O6)c2ccccc21 [Compound 9, 4,5α-epoxy-6β-(3,4-dihydro-1-methyl-1H-quinoxalino)-17-methyl-morphinan-3,14-diol]",Mean Inhibitory Time of Rhythmic Bladder Contractions,dose 0.1 mg/kg body weight,9.1 min
"CN1CC[C@]23c4c5ccc(O)c4O[C@H]2[C@H](N2CCOCc4ccccc42)CC[C@H]3[C@H]1C5 [Compound 10, 4,5α-epoxy-6β-(1,2,3,5-tetrahydro-benzo[e][1,4]oxazepino)-17-methyl-morphinan-3-ol]",Mean Inhibitory Time of Rhythmic Bladder Contractions,dose 0.3 mg/kg body weight,7.8 min
"O=C1c2ccccc2C(=O)N1[C@@H]1CC[C@@]2(O)[C@H]3Cc4ccc(O)c5c4[C@@]2(CCN3CC2CC2)[C@H]1O5 [Compound 11, N-(17-cyclopropylmethyl-4,5α-epoxy-3,14-dihydroxy-morphinan-6β-yl)-phthalimide]",Mean Inhibitory Time of Rhythmic Bladder Contractions,dose 0.005 mg/kg body weight,15.5 min
"Cc1ccc2c(c1)C(=O)N([C@@H]1CC[C@@]3(O)[C@H]4Cc5ccc(O)c6c5[C@@]3(CCN4CC3CC3)[C@H]1O6)C2=O [Compound 12, N-(17-cyclopropylmethyl-4,5α-epoxy-3,14-dihydroxy-morphinan-6β-yl)-4-methylphthalimide]",Mean Inhibitory Time of Rhythmic Bladder Contractions,dose 0.03 mg/kg body weight,16.5 min
"C=CCN1CC[C@]23c4c5ccc(O)c4O[C@H]2[C@H](N2C(=O)c4ccccc4C2=O)CC[C@@]3(O)[C@H]1C5 [Compound 13, N-(17-allyl-4,5α-epoxy-3,14-dihydroxy-morphinan-6β-yl)-phthalimide]",Mean Inhibitory Time of Rhythmic Bladder Contractions,dose 0.03 mg/kg body weight,11.7 min
"O=C1c2ccccc2C(=O)N1[C@@H]1CC[C@@]2(O)[C@H]3Cc4ccc(O)c5c4[C@@]2(CCN3)[C@H]1O5 [Compound 14, N-(4,5α-epoxy-3,14-dihydroxy-morphinan-6β-yl)-phthalimide]",Mean Inhibitory Time of Rhythmic Bladder Contractions,dose 1.0 mg/kg body weight,7.9 min
